Test results from publication PMC3343204 (Clinical Cancer Research, 2012).

Experiments:
MPNST cells = assay: Colony formation assay; format: cell-based, human; conditions: for IC50: Homo sapiens, 24 h
[1] = Flavopiridol plasma pharmacokinetics in phase I trial; format: in vivo, human
[2] = tested on: dedifferentiated liposarcoma cell lines, with amplified CDK4; assay: Sensitivity of liposarcoma cell lines; format: cell-based, human; conditions: prior observations, data not shown
[3] = human plasma; cited from earlier work
CDK2 = conditions: cited from earlier work
CDK4 = conditions: cited from earlier work
CDK6 = conditions: cited from earlier work
CDK9 = conditions: cited from earlier work
[4] = patients, cited from earlier work

Row | Structure (SMILES) | IC50 (MPNST cells) | colony formation (percentage of untreated controls) (MPNST cells; MPNST cells, flavopiridol alone 150 nM 24 hours, colonies after 10 days) | time point at which Cmax was observed ([1]; first time point analyzed in each schedule) | Cmax ([1]; human, plasma, intravenous, Mean Cmax, cycle 1, cohort 8 (doxorubicin 60, flavopiridol 90 (50/40) mg/m^2), n 4) | sensitivity to flavopiridol [2] | protein binding in plasma [3] | inhibition of CDK2 (CDK2) | inhibition of CDK4 (CDK4) | inhibition of CDK6 (CDK6) | inhibition of CDK9 (CDK9) | MTD, single agent bolus schedule ([4]; approximate) | MTD, single agent divided dose flavopiridol therapy ([4]; bolus followed by infusion)
1 | COc1cccc2c1C(=O)c1c(O)c3c(c(O)c1C2=O)C[C@@](O)(C(=O)CO)C[C@@H]3O[C@H]1C[C@H](N)[C@H](O)[C@H](C)O1 [doxorubicin] | 0.015 µM |  |  |  |  |  |  |  |  |  |  | 
2 | CN1CC[C@H](c2c(O)cc(O)c3c(=O)cc(-c4ccccc4Cl)oc23)[C@H](O)C1 [flavopiridol] | 0.15 µM | 59% | 0.5 h | 3.33 µM | highly sensitive | 90% | nanomolar concentrations | nanomolar concentrations | nanomolar concentrations | nanomolar concentrations | ~70 mg/m^2 | 90 mg/m^2
